We go through 16 compounds from patent US7517885B2, “Substituted [4-(4-phenyl-piperazin-1-yl)-cyclohexyl]-urea compounds” (Janssen Pharmaceutica N.V., priority 2005, dated 2009).

The target in one experiment is T1, α1b-AR (Homo sapiens, UniProt P35368).
T1 construct: expressed in transfected cells; host or cells: COS-7 cells (membranes)
T1 sequence (P35368 1-520): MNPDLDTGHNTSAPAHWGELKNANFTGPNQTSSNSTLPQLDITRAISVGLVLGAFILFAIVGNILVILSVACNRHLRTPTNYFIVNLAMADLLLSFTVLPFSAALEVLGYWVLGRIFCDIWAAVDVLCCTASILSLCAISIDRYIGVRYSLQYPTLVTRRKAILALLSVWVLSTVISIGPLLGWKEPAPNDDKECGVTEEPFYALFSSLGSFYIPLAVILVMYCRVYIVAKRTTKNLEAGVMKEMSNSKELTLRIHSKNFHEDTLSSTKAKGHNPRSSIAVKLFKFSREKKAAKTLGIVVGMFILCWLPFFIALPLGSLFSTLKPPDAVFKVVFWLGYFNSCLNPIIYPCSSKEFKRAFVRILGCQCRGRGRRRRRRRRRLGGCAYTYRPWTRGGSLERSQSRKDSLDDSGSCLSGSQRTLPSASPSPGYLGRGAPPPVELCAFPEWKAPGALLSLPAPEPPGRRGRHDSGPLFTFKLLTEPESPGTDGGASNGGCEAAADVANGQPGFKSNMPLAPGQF
Description: α1-Adrenergic Receptor Binding Assay (125I-HEAT radio-ligand), α1b subtype. As to conditions: membranes of COS-7 cells transfected with α1b subtype; 125I-HEAT 50 pM; rt 1 hr. On the procedure:
(§1) α1-Adrenergic Receptor Binding Assay
(§2) Preparation of COS Cell Membranes
(§3) Membranes were prepared from COS-7 cells (African Green monkey kidney SV40-transformed cells) that had been transfected with one of the three α1-AR subtypes (Genbank accession number for the α1a subtype: AF013261; Genbank accession number for the α1b subtype: NM000679; Genbank accession number for the α1d subtype: NM000678) using the following method: COS cells from ten 100 mm tissue culture plates were scraped into a 5 mL volume of TE (a mixture of 50 mM Tris-HCl, 5 mM EDTA, pH 7.4). […] The disrupted cells were centrifuged at 1000×g min at 4° C. Supernatants were centrifuged at 34,500×g for 20 min at 4° C. The membrane pellets were suspended in a 2 mL volume of TNE (a mixture of 50 mM Tris-HCl, 5 mM EDTA and 150 mM NaCl at pH 7.4). An aliquot of the membrane suspension was stored at −70° C. until use. The protein concentration was determined using the BioRad “DC” protein assay kit following membrane solubilization with Triton X-100.
(§4) Radio-Ligand Binding Assay
(§5) Triplicate determinations of radio-ligand binding in the presence of increasing concentrations of testing compound were made. The reagents were added to 96-well polypropylene plate wells. […] The plate was incubated at rt for 1 hr. The contents of the wells were filtered through a glass filter (type C) (GF/C) membrane Unifilter plate (Packard Instruments) using the Packard Filtermate cell harvester. The filter plates were dried in a vacuum oven for 30 min at 40° C. 25 μL Microscint 20 liquid scintillation fluid (Packard Instruments) was added to each well. The radioactive content was analyzed in the TopCount microplate scintillation counter (Packard Instruments).

Another experiment concerns the target T2, α1d-AR (Homo sapiens, UniProt P25100).
T2 construct: expressed in transfected cells; host or cells: COS-7 cells (membranes)
T2 sequence (P25100 1-572): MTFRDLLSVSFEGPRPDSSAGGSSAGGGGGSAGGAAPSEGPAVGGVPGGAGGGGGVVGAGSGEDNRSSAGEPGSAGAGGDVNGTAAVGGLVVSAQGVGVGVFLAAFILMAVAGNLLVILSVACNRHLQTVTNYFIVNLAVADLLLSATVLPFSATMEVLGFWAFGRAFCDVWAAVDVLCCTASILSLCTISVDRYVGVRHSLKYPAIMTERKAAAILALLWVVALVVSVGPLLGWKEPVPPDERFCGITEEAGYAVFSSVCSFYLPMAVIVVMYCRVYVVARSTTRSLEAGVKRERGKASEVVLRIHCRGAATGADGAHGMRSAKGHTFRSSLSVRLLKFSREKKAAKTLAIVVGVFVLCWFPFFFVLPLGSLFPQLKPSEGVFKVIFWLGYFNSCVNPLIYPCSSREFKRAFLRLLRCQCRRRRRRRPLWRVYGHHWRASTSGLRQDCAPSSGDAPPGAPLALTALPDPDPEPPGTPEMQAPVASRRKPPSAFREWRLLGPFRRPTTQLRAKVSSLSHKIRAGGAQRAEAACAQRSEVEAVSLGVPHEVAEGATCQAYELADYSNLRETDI
Description: α1-Adrenergic Receptor Binding Assay (125I-HEAT radio-ligand), α1d subtype. The note with it: membranes of COS-7 cells transfected with α1d subtype; 125I-HEAT 50 pM; rt 1 hr. How it is done:
as §1, §2, §3, §4, §5

A further experiment has as its target T3, α1a-AR (Homo sapiens, UniProt P35348).
T3 construct: expressed in transfected cells; host or cells: COS-7 cells (membranes)
T3 sequence (P35348 1-455 isoform P35348-4): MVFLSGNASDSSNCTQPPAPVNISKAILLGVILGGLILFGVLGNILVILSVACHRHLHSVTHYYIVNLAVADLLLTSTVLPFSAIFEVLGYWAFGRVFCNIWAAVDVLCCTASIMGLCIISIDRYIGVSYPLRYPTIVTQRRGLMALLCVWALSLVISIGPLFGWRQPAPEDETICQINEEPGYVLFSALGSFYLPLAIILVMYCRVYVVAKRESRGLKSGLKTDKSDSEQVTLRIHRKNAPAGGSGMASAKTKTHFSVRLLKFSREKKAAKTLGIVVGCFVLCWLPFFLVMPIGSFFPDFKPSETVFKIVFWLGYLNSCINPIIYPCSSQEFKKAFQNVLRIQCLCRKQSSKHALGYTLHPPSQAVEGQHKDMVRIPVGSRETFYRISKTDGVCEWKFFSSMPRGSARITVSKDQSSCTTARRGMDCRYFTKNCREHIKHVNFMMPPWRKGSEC
Description: α1-Adrenergic Receptor Binding Assay (125I-HEAT radio-ligand), α1a subtype. The note with it: membranes of COS-7 cells transfected with α1a subtype; 125I-HEAT 50 pM; rt 1 hr. How it is done: as §1, §2, §3, §4, §5

The subject of experiment [1] is α1a and α1d subtypes over the α1b subtype. As to conditions: cited from earlier work.

`CC(C)Oc1ccccc1N1CCN([C@H]2CC[C@H](NC(=O)Nc3cc(F)ccc3F)CC2)CC1` [Cpd 25, 1-(2,5-difluoro-phenyl)-r-3-{t-4-[4-(2-isopropoxy-phenyl)-piperazin-1-yl]-cyclohexyl}-urea]: the figures for the Ki at α1b-AR, on α1d-AR and at α1a-AR were 0.0364 µM, 0.0012 µM and 0.0017 µM, respectively.

Turning to `CC(C)Oc1ccccc1N1CCN(C2CCC(NC(=O)Nc3ccccc3OC(F)(F)F)CC2)CC1` (mixture of isomers) [Cpd 30, 1-{4-[4-(2-isopropoxy-phenyl)-piperazin-1-yl]-cyclohexyl}-3-(2-trifluoromethoxy-phenyl)-urea], the Ki (in general, a measure of affinity in units of concentration, obtained from inhibition or displacement) was 0.604 µM on α1b-AR, 0.0134 µM on α1d-AR and 0.101 µM at α1a-AR.

`COc1ccc(NC(=O)N[C@H]2CC[C@H](N3CCN(c4ccccc4OC(C)C)CC3)CC2)c(C)c1` [Cpd 21, r-1-{t-4-[4-(2-isopropoxy-phenyl)-piperazin-1-yl]-cyclohexyl}-3-(4-methoxy-2-methyl-phenyl)-urea]: the Ki on α1b-AR was found to be 0.153 µM; on α1d-AR, 0.0216 µM; at α1a-AR, 0.0234 µM.

On to `CC(C)Oc1ccccc1N1CCN([C@H]2CC[C@@H](NC(=O)Nc3cc(F)cc(F)c3)CC2)CC1` [Cpd 28, 1-(3,5-difluoro-phenyl)-r-3-{c-4-[4-(2-isopropoxy-phenyl)-piperazin-1-yl]-cyclohexyl}-urea], for which the inhibition constant Ki at α1b-AR stood at 1.05 µM; on α1d-AR it was 0.044 µM; on α1a-AR, 0.108 µM.

For `CC(C)Oc1ccccc1N1CCN([C@H]2CC[C@H](NC(=O)Nc3ccc(OC(F)(F)F)cc3)CC2)CC1` [Cpd 32, r-1-{t-4-[4-(2-isopropoxy-phenyl)-piperazin-1-yl]-cyclohexyl}-3-(4-trifluoromethoxy-phenyl)-urea], the Ki turned out to be 0.129 µM on α1b-AR, 0.058 µM at α1d-AR and 0.181 µM on α1a-AR.

In the case of `COc1ccc(C)cc1NC(=O)N[C@H]1CC[C@@H](N2CCN(c3ccccc3OC(C)C)CC2)CC1` [Cpd 33, r-1-{c-4-[4-(2-isopropoxy-phenyl)-piperazin-1-yl]-cyclohexyl}-3-(2-methoxy-5-methyl-phenyl)-urea], the Ki on α1b-AR is 0.168 µM; on α1d-AR it was 0.0065 µM; on α1a-AR, 0.037 µM.

For the compound `CC(C)Oc1ccccc1N1CCN([C@H]2CC[C@H](NC(=O)Nc3cc(F)cc(F)c3)CC2)CC1` [Cpd 29, 1-(3,5-difluoro-phenyl)-r-3-{t-4-[4-(2-isopropoxy-phenyl)-piperazin-1-yl]-cyclohexyl}-urea], the inhibition constant (Ki) came to 0.052 µM at α1b-AR, 0.001 µM at α1d-AR and 0.0057 µM at α1a-AR.

On to `COc1ccc(NC(=O)N[C@H]2CC[C@@H](N3CCN(c4ccccc4OC(C)C)CC3)CC2)cc1Cl` [Cpd 34, 1-(3-chloro-4-methoxy-phenyl)-r-3-{c-4-[4-(2-isopropoxy-phenyl)-piperazin-1-yl]-cyclohexyl}-urea], for which the inhibition constant Ki on α1b-AR stood at 0.493 µM; at α1d-AR it was 0.028 µM; on α1a-AR it was 0.073 µM.

For the compound `CC(C)Oc1ccccc1N1CCN(C2CCC(NC(=O)Nc3ccccc3Oc3ccccc3)CC2)CC1` (mixture of isomers) [Cpd 17, 1-{4-[4-(2-isopropoxy-phenyl)-piperazin-1-yl]-cyclohexyl}-3-(2-phenoxy-phenyl)-urea], the values for the Ki on α1b-AR, on α1d-AR and at α1a-AR were 0.43 µM, 0.0084 µM and 0.038 µM, respectively.

As for `CC(C)Oc1ccccc1N1CCN([C@H]2CC[C@H](NC(=O)Nc3c(Cl)cc(Cl)cc3Cl)CC2)CC1` [Cpd 16, r-1-{t-4-[4-(2-isopropoxy-phenyl)-piperazin-1-yl]-cyclohexyl}-3-(2,4,6-trichloro-phenyl)-urea], the Ki turned out to be 0.112 µM at α1b-AR, 0.0036 µM at α1d-AR and 0.0064 µM at α1a-AR.

In the case of `CC(C)Oc1ccccc1N1CCN([C@H]2CC[C@@H](NC(=O)NCc3cccc(F)c3)CC2)CC1` [Cpd 5, 1-(3-fluoro-benzyl)-r-3-{c-4-[4-(2-isopropoxy-phenyl)-piperazin-1-yl]-cyclohexyl}-urea], the inhibition constant Ki stood at 0.706 µM on α1b-AR, 0.062 µM on α1d-AR and 0.082 µM on α1a-AR.

`COc1ccc(NC(=O)N[C@H]2CC[C@H](N3CCN(c4ccccc4OC(C)C)CC3)CC2)cc1Cl` [Cpd 35, 1-(3-chloro-4-methoxy-phenyl)-r-3-{t-4-[4-(2-isopropoxy-phenyl)-piperazin-1-yl]-cyclohexyl}-urea]: the Ki was 0.108 µM on α1b-AR, 0.0023 µM at α1d-AR and 0.013 µM on α1a-AR.

Take `CCOc1ccccc1OCCN[C@H](C)Cc1ccc(OC)c(S(N)(=O)=O)c1` [Tamsulosin]: the “selective for the α1a and α1d subtypes over the α1b subtype” value in experiment [1] is recorded as “about 15 fold”.

As to `CC(C)Oc1ccccc1N1CCN([C@H]2CC[C@H](NC(=O)Nc3ccccc3Cl)CC2)CC1` [Cpd 10, 1-(2-chloro-phenyl)-r-3-{t-4-[4-(2-isopropoxy-phenyl)-piperazin-1-yl]-cyclohexyl}-urea], the figures for the Ki at α1b-AR, at α1d-AR and at α1a-AR were 0.039 µM, 0.003 µM and 0.0114 µM, respectively.

Regarding `CC(C)Oc1ccccc1N1CCN([C@H]2CC[C@H](NC(=O)NCc3cccc(F)c3)CC2)CC1` [Cpd 6, 1-(3-fluoro-benzyl)-r-3-{t-4-[4-(2-isopropoxy-phenyl)-piperazin-1-yl]-cyclohexyl}-urea], the Ki on α1b-AR was determined as 0.0696 µM; on α1d-AR, 0.0153 µM; on α1a-AR, 0.0108 µM.

With `CC(C)Oc1ccccc1N1CCN([C@H]2CC[C@@H](NC(=O)Nc3ccccc3Cl)CC2)CC1` [Cpd 9, 1-(2-chloro-phenyl)-r-3-{c-4-[4-(2-isopropoxy-phenyl)-piperazin-1-yl]-cyclohexyl}-urea], the Ki at α1b-AR worked out at 0.373 µM; at α1d-AR, 0.046 µM; on α1a-AR it was 0.0475 µM.
